Data on 44 compounds can be found in patent US10633350B2, “Diphenyl derivatives and uses thereof” (NOVARTIS AG, priority 2017, dated 2020).

Usually AC50 stands for the concentration at which the activity in the assay is half-maximal.

The test has as its system FoxO3a. Put plainly: FoxO3a inhibition assay (GFP-FoxO3a nuclear to cytoplasmic translocation) in U2OS GFP-FoxO3a H212R reporter cells. The following applies: Homo sapiens, 0.5 h, serum starved overnight, 30 minutes compound treatment, ratio of nuclear to cytosolic GFP intensity, AC50 = concentration that results in 50% activation or inhibition, read-out: FoxO AC50. It counts as cell-based. On the procedure:
Phosphorylation of Akt on S473 and FoxO3a nuclear to cytoplasmic translocation were used as readouts of PI3K/Akt/mTOR pathway activation downstream of growth factor signaling.
Reporter cell line. U2OS GFP-FoxO3a H212R reporter cell line was established by transducing U2OS cells with the retroviral plasmid pLEGFP-C1 containing FoxO3a H212R transgene and selecting for G418 resistant clones.
Reporter assay. U2OS GFP-FoxO3a H212R cells were plated in 384-well plates at 4000 cells per well in 30 microliters of McCoy's 5A medium containing 10% FBS. On day 1 the cells were washed with serum free medium and serum starved overnight. On day 2 the cells were treated with different doses of the compounds for 30 minutes, fixed with 4% Paraformaldehyde for 1 hour and stained with Phospho-AKT (Ser473) antibody (Cell Signaling Technology, catalog #4060) overnight at 4° C. After nuclei staining with Hoechst 33342 (Life Technologies, catalog # H3570) the plates were imaged with InCell 2000 (GE Healthcare Bio-Sciences). FoxO3a inhibition activity is calculated as the ratio of nuclear to cytosolic GFP intensity in percent. Akt activation is measured as the total cellular intensity of Phospho-Akt antibody staining in percent. DMSO control is set as 0% activity.
Take `Cc1nc(C(N)=O)nn1-c1ccc(Cc2ccc(-c3ccc(O[C@@H]4CCN(C)C4)cc3)cc2)cc1` [Example 63, (R)-5-methyl-1-(4-((4′-((1-methylpyrrolidin-3-yl)oxy)-[1,1′-biphenyl]-4-yl)methyl)phenyl)-1H-1,2,4-triazole-3-carboxamide]: the AC50 is 11 nM.

As to `Cc1nc(C(N)=O)nn1-c1ccc(Cc2ccc(-c3ccc(CN4CCN[C@@H](CO)C4)cc3)cc2)cc1` [Example 39-12], the AC50 amounted to 181 nM.

As to `Cc1nc(C(N)=O)nn1-c1ccc(Cc2ccc(-c3ccc(CN4CCCC[C@H]4CO)cc3)cc2)cc1` [Example 39-22], the AC50 came out at 98 nM.

As to `Cc1nc(C(N)=O)nn1-c1ccc(Cc2ccc(-c3ccc(CN4CC(C)(O)C4)cc3)cc2)cc1` [Example 39-24], the AC50 was 406 nM.

Take `Cc1nc(C(N)=O)nn1-c1ccc(Cc2ccc(-c3ccc(CN4CC[C@@H](F)C4)cc3)cc2)cc1` [Example 39-13]: the AC50 was 79 nM.

For `Cc1nc(C(N)=O)nn1-c1ccc(Cc2ccc(C3CC4(CC(C(=O)N5CCNCC5)C4)C3)cc2)cc1` (centres unmarked) [Example 44, 5-methyl-1-(4-(4-(6-(piperazine-1-carbonyl)spiro[3.3]heptan-2-yl)benzyl)phenyl)-1H-1,2,4-triazole-3-carboxamide], the AC50 was determined as 134 nM.

Take `Cc1cc(C(N)=O)nn1-c1ccc(Cc2ccc(-c3ccc(C(=O)NCC(C)(C)O)cn3)cc2)cc1` [Example 59, 6-(4-(4-(3-carbamoyl-5-methyl-1H-pyrazol-1-yl)benzyl)phenyl)-N-(2-hydroxy-2-methylpropyl)nicotinamide]: the AC50 is 58 nM.

As to `Cc1nc(C(N)=O)nn1-c1ccc(Cc2ccc(-c3ccc(CN4CCCC(C(C)(C)O)C4)cc3)cc2)cc1` (centres unmarked) [Example 39-7], the concentration at half-maximal activity (AC50) was 29 nM.

For the compound `Cc1cc(C(N)=O)nn1-c1ccc(Cc2ccc(-c3ccc(CN4CCN(C5COC5)CC4)cn3)cc2)cc1` [Example 33, 5-methyl-1-(4-(4-(5-((4-(oxetan-3-yl)piperazin-1-yl)methyl)pyridin-2-yl)benzyl)phenyl)-1H-pyrazole-3-carboxamide], the AC50 was 138 nM.

On to `Cc1nc(C(N)=O)nn1-c1ccc(Cc2ccc(-c3ccc(CN4C[C@@H](C)N[C@@H](C)C4)cc3)cc2)cc1` [Example 39-19], for which the AC50 came to 65 nM.

With `Cc1cc(C(N)=O)nn1-c1ccc(Cc2ccc(-c3ccc(C(=O)N4CCNCC4)cn3)cc2)cc1` [Example 27, 5-methyl-1-(4-(4-(5-(piperazine-1-carbonyl)pyridin-2-yl)benzyl)phenyl)-1H-pyrazole-3-carboxamide], the AC50 stood at 213 nM.

Consider `Cc1nc(C(N)=O)nn1-c1ccc(Cc2ccc(-c3ccc(CN4CCNC(C)(C)C4)cc3)cc2)cc1` [Example 39-18], for which the concentration at half-maximal activity (AC50) amounted to 81 nM.

Turning to `Cc1cc(C(N)=O)nn1-c1ccc(Cc2ccc(-c3ccc(C(C)(C)CO)cn3)cc2)cc1` [Example 57, 1-(4-(4-(5-(1-hydroxy-2-methylpropan-2-yl)pyridin-2-yl)benzyl)phenyl)-5-methyl-1H-pyrazole-3-carboxamide], the AC50 is 49 nM.

Take `Cc1nc(C(N)=O)nn1-c1ccc(Cc2ccc(-c3ccc(CN4CCC5(COC5)C4)cc3)cc2)cc1` [Example 38-1, 1-(4-((4′-((2-oxa-6-azaspiro[3.4]octan-6-yl)methyl)-[1,1′-biphenyl]-4-yl)methyl)phenyl)-5-methyl-1H-1,2,4-triazole-3-carboxamide]: the AC50 is 2 nM.

Take `Cc1nc(C(N)=O)nn1-c1ccc(Cc2ccc(-c3ccc(CN4CC(CO)C4)cc3)cc2)cc1` [Example 39-36]: the AC50 was 164 nM.

In the case of `Cc1nc(C(N)=O)nn1-c1ccc(Cc2ccc(-c3ccc(CN4CCC(S(C)(=O)=O)CC4)cc3)cc2)cc1` [Example 39-31], the AC50 was found to be 49 nM.

Turning to `Cc1nc(C(N)=O)nn1-c1ccc(Cc2ccc(-c3ccc(CN4C[C@H]5CCN(C)[C@H]5C4)cc3)cc2)cc1` [Example 39-30], the AC50 is 32 nM.

`Cc1nc(C(N)=O)nn1-c1ccc(Cc2ccc(-c3ccc(CN4CCN5CCCCC5C4)cc3)cc2)cc1` (centres unmarked) [Example 39-21]: the AC50 came to 60 nM.

Turning to `Cc1nc(C(N)=O)nn1-c1ccc(Cc2ccc(-c3ccc(CN4CCCC5(COC5)C4)cc3)cc2)cc1` [Example 38-6], the AC50 is 74 nM.

On to `Cc1nc(C(N)=O)nn1-c1ccc(Cc2ccc(-c3ccc(CN4C[C@@H]5[C@@H](CO)[C@@H]5C4)cc3)cc2)cc1` [Example 39-34], for which the AC50 was 10 nM.

As to `Cc1nc(C(N)=O)nn1-c1ccc(Cc2ccc(-c3ccc(CN4CCC(O)CC4)cc3)cc2)cc1` [Example 39-25], the AC50 was determined as 105 nM.

Consider `Cc1nc(C(N)=O)nn1-c1ccc(Cc2ccc(-c3ccc(CN4CC(O)C4)cc3)cc2)cc1` [Example 39-8], for which the AC50 came to 864 nM.

On to `Cc1nc(C(N)=O)nn1-c1ccc(Cc2ccc(-c3ccc(CN4CC(F)(F)C4)cc3)cc2)cc1` [Example 39-33], for which the AC50 is 42 nM.

For `Cc1cc(C(N)=O)nn1-c1ccc(Cc2ccc(C34CCC(C(=O)N5CCN(C)CC5)(CC3)CC4)cc2)cc1` [Example 43, 5-methyl-1-(4-(4-(4-(4-methylpiperazine-1-carbonyl)bicyclo[2.2.2]octan-1-yl)benzyl)phenyl)-1H-pyrazole-3-carboxamide], the AC50 was determined as 17 nM.

On to `Cc1nc(C(N)=O)nn1-c1ccc(Cc2ccc(-c3ccc(CN4CCN[C@@H](C)C4)nc3)cc2)cc1` [Example 36, (S)-5-methyl-1-(4-(4-(6-((3-methylpiperazin-1-yl)methyl)pyridin-3-yl)benzyl)phenyl)-1H-1,2,4-triazole-3-carboxamide], for which the AC50 was 183 nM.

As for `Cc1cc(C(N)=O)nn1-c1ccc(Cc2ccc(C34CCC(C(=O)N5CCNCC5)(CC3)CC4)cc2)cc1` [Example 42, 5-methyl-1-(4-(4-(4-(piperazine-1-carbonyl)bicyclo[2.2.2]octan-1-yl)benzyl)phenyl)-1H-pyrazole-3-carboxamide], the AC50 worked out at 55 nM.

For the compound `Cc1nc(C(N)=O)nn1-c1ccc(Cc2ccc(-c3ccc(CN4CCCC(F)C4)cc3)cc2)cc1` (centres unmarked) [Example 39-27], the AC50 came out at 46 nM.

Turning to `Cc1nc(C(N)=O)nn1-c1ccc(Cc2ccc(-c3ccc(CN4C[C@H](O)[C@@H](O)C4)cc3)cc2)cc1` [Example 39-29], the AC50 amounted to 180 nM.

Take `Cc1nc(C(N)=O)nn1-c1ccc(Cc2ccc(-c3ccc(CN4CC5(CCCO5)C4)cc3)cc2)cc1` [Example 39-11]: the AC50 is 241 nM.

In the case of `Cc1cc(C(N)=O)nn1-c1ccc(Cc2ccc(-c3cnc(C(C)(C)O)nc3)cc2)cc1` [Example 60, 1-(4-(4-(2-(2-hydroxypropan-2-yl)pyrimidin-5-yl)benzyl)phenyl)-5-methyl-1H-pyrazole-3-carboxamide], the AC50 was 83 nM.

As for `Cc1nc(C(N)=O)nn1-c1ccc(Cc2ccc(-c3ccc(CN4CCC5CN(C)CC54)cc3)cc2)cc1` (centres unmarked) [Example 39-15], the AC50 worked out at 5 nM.

For the compound `Cc1nc(C(N)=O)nn1-c1ccc(Cc2ccc(-c3ccc(CN4C[C@@H](C)N[C@H](C)C4)cc3)cc2)cc1` [Example 39-9], the AC50 is 123 nM.

Take `Cc1nc(C(N)=O)nn1-c1ccc(Cc2ccc(-c3ccc(CN4CCC(N(C)C)CC4)cc3)cc2)cc1` [Example 39-2]: the AC50 turned out to be 5 nM.

Turning to `Cc1nc(C(N)=O)nn1-c1ccc(Cc2ccc(-c3ccc(CN4CCC(C)(O)C4)cc3)cc2)cc1` (centres unmarked) [Example 39-10], the AC50 stood at 13 nM.

Consider `Cc1nc(C(N)=O)nn1-c1ccc(Cc2ccc(-c3ccc(CN4CCC(S(C)(=O)=O)C4)cc3)cc2)cc1` (centres unmarked) [Example 39-14], for which the AC50 was 54 nM.

As for `Cc1nc(C(N)=O)nn1-c1ccc(Cc2ccc(-c3ccc(CN4CCC(C(F)(F)F)CC4)cc3)cc2)cc1` [Example 39-35], the AC50 was 145 nM.

With `Cc1cc(C(N)=O)nn1-c1ccc(Cc2ccc(-c3ccc(C(C)(C)O)nn3)cc2)cc1` [Example 58, 1-(4-(4-(6-(2-hydroxypropan-2-yl)pyridazin-3-yl)benzyl)phenyl)-5-methyl-1H-pyrazole-3-carboxamide], the AC50 came out at 225 nM.

On to `Cc1nc(C(N)=O)nn1-c1ccc(Cc2ccc(-c3ccc(CN4CCCC(C)(O)C4)cc3)cc2)cc1` (centres unmarked) [Example 39-16], for which the AC50 amounted to 56 nM.

`Cc1nc(C(N)=O)nn1-c1ccc(Cc2ccc(-c3ccc(CN4CCN(C(C)(C)C)CC4)cc3)cc2)cc1` [Example 39-17]: the AC50 is 85 nM.

Regarding `Cc1nc(C(N)=O)nn1-c1ccc(Cc2ccc(-c3ccc(CN4CCC(CO)CC4)cc3)cc2)cc1` [Example 39-23], the AC50 turned out to be 18 nM.

For `Cc1nc(C(N)=O)nn1-c1ccc(Cc2ccc(-c3ccc(CN4C[C@H]5COC[C@H]5C4)cc3)cc2)cc1` [Example 39-26], the half-maximal activity concentration (AC50) was found to be 31 nM.

As for `Cc1nc(C(N)=O)nn1-c1ccc(Cc2ccc(-c3ccc(CN4C[C@H]5CN(C)C[C@H]5C4)cc3)cc2)cc1` [Example 38-3], the AC50 was found to be 35 nM.

Regarding `Cc1nnc(-c2cccc(-c3ccc(Cc4ccc(-n5nc(C(N)=O)cc5C)cc4)cc3)c2)o1` [Example 3-7, 5-methyl-1-(4-((3′-(5-methyl-1,3,4-oxadiazol-2-yl)-[1,1′-biphenyl]-4-yl)methyl)phenyl)-1H-pyrazole-3-carboxamide], the AC50 came to 499 nM.

As to `Cc1nc(C(N)=O)nn1-c1ccc(Cc2ccc(-c3ccc(CN4CCCN(C)CC4)cc3)cc2)cc1` [Example 39-28], the AC50 is 39 nM.
